According to patent US20240208970A1, “SUBSTITUTED HYDANTOIN COMPOUNDS, METHODS FOR PREPARATION THEREOF AND USE THEREOF IN THE TREATMENT AND/OR PREVENTION OF A CORONA VIRUS DISEASE” (priority 2021, published 2024):

Tests used:
[1] = biological target: SARS-CoV-2 M^pro protease (Severe acute respiratory syndrome coronavirus 2 (2019-nCoV) (SARS-CoV-2), UniProt P0DTD1); assay: biochemical; type: biochemical; details: M^pro 75 nM, substrate 10 μM
M^pro = M^pro (Severe acute respiratory syndrome coronavirus 2 (2019-nCoV) (SARS-CoV-2), UniProt P0DTD1); type: binding; details: steady-state analysis, 25° C.

| Structure (SMILES) | IC50 ([1]; Tables 5B-5E) [nM] | Kd (M^pro) [nM] | IC50 ([1]; Table 5A) [nM] |
| --- | --- | --- | --- |
| O=C1NC2(CC(c3ccccc3Cl)C2)C(=O)N1c1cncc2c(F)c(F)c(F)cc12 (single isomer, unassigned) [Compound 60, 2-(2-chlorophenyl)-7-(6,7,8-trifluoroisoquinolin-4-yl)-5,7-diazaspiro[3.4]octane-6,8-dione] | 1370 | 364 | – |
| O=C1NC2(CC(C3CCC3)C2)C(=O)N1c1cncc(F)c1 (centres unmarked) [Compound 13, 2-cyclobutyl-7-(5-fluoropyridin-3-yl)-5,7-diazaspiro[3.4]octane-6,8-dione] | – | 66000 ± 14000 | 6700 |
| O=C1NC2(CC(c3ccccc3Cl)C2)C(=O)N1c1cncc2cccnc12 (centres unmarked) [Compound 50, 2-(2-chlorophenyl)-7-(1,6-naphthyridin-8-yl)-5,7-diazaspiro[3.4]octane-6,8-dione] | 105 | 28 | – |
| O=C1NC2(CC(c3ccccc3Cl)C2)C(=O)N1c1cncc2cnccc12 (centres unmarked) [Compound 51, 2-(2-chlorophenyl)-7-(2,7-naphthyridin-4-yl)-5,7-diazaspiro[3.4]octane-6,8-dione] | 141 | 29 | – |
| O=C1NC2(CC(c3ccccc3Cl)C2)C(=O)N1c1cncc2nccnc12 (centres unmarked) [Compound 52, 2-(2-chlorophenyl)-7-(pyrido[3,4-b]pyrazin-8-yl)-5,7-diazaspiro[3.4]octane-6,8-dione] | 394 | 134 | – |
| O=C1NC2(CC(c3ccccc3Cl)C2)C(=O)N1c1cncc2cccc(F)c12 (centres unmarked) [Compound 53, 2-(2-chlorophenyl)-7-(5-fluoroisoquinolin-4-yl)-5,7-diazaspiro[3.4]octane-6,8-dione] | 253 | 42 | – |
| O=C1NC2(CC(c3ccccc3Cl)C2)C(=O)N1c1cccnc1F (centres unmarked) [Compound 62, 2-(2-chlorophenyl)-7-(2-fluoropyridin-3-yl)-5,7-diazaspiro[3.4]octane-6,8-dione] | 201 | 36 | – |
